Literature values in patent publication US7238683B2, “Fused phenylalanine derivatives as dipeptidyl peptidase-iv inhibitors for the treatment or prevention of diabetes” (Merck & Co., Inc., priority 2003, dated 2007).

Key:
hematopoiesis = conditions: mouse, cyclophosphamide-induced neutropenia
DP-IV = molecular target: T1, DP-IV (Homo sapiens, UniProt P27487)
T1 construct: GRP is rapidly degraded in plasma to GRF[3-44]; from tissue
T1 sequence (P27487 whole entry): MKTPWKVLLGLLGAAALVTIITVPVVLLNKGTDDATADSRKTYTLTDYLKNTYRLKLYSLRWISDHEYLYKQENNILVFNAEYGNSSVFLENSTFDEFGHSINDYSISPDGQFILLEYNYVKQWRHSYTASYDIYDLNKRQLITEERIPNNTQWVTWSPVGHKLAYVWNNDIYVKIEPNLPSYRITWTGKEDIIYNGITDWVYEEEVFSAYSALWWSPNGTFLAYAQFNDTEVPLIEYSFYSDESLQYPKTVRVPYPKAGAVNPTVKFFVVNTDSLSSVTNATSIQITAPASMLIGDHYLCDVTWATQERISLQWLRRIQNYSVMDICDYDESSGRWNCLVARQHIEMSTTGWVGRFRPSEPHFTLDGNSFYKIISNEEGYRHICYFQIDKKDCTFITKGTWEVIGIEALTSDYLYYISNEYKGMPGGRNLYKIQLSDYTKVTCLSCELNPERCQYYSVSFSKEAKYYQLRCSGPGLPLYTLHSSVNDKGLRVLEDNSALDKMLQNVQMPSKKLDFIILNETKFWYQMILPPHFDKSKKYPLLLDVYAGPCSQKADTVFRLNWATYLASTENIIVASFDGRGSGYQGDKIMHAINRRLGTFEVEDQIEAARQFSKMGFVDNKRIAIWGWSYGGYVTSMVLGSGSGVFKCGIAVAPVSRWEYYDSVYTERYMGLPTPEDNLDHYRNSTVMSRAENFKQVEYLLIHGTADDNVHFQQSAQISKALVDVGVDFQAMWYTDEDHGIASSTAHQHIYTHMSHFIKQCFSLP

CC(C)[C@H](N)C(=O)N1CCC[C@H]1B(O)O [Val-Boro-Pro]
effect on hematopoiesis (hematopoiesis): stimulated hematopoiesis

CC[C@H](C)[C@H](N)C(=O)N1CCC[C@H]1C(=O)N[C@H](C(=O)O)[C@@H](C)CC [diprotin A]
degradation of GRF in plasma to GRF[3-44] (DP-IV): prevented
